Experimental data reported in patent US7135466B2 (Kirin Beer Kabushiki Kaisha, priority 1999, dated 2006).

Experiments:
c-kit = molecular target: T1, c-kit (Homo sapiens, UniProt P10721); assay: Inhibitory activity against c-kit autophosphorylation (MO7e cells, h-SCF); type: cell-based; details: for IC50: MO7e cells, h-SCF stimulation, read-out: c-kit IC50; for inhibition at 1 µM: Mo7e, figure in parentheses in −( ), at 1000 nM
T1 construct: MO7e (human megakaryocytic leukemia cell line) which had been arrested for 20 hr; endogenous in cells; host or cells: MO7e human megakaryocytic leukemia cell line
In short: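 MO7e human megakaryocytic leukemia cells, arrested 20 hr, treated with compound 1 hr, then stimulated with 50 ng/ml h-SCF for 5 min and lysed. Lysates captured on immobilized anti-phosphotyrosine antibody, detected with anti-c-kit primary and HRP secondary antibody; absorbance at 450 nm.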

PDGF-Ra = molecular target: T2, PDGF-Ra (Homo sapiens, UniProt P16234); assay: Inhibitory activity against PDGF-Ra phosphorylation by PDGF-AA stimulation using G292; type: cell-based; details: for IC50: > means inhibition at indicated concentration not more than 50%, < and << not less than 50%, read-out: PDGF (E) IC50; for inhibition at 0.1 µM: G292, figure in parentheses in >100( ), at 100 nM, read-out: PDGF (E) inhibition (%) at 100 nM
T2 construct: host or cells: G-292 human osteosarcoma cells
In short: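 G-292 human osteosarcoma cells in 0.1% FBS medium overnight, given compound for 1 hr at 37° C, then PDGF-AA 50 ng/ml for 5 min. Lysates captured on anti-phosphotyrosine (PY-20) plates and probed with anti-PDGF-Ra plus HRP secondary; absorbance at 450 nm.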

T1 sequence (P10721 26-976): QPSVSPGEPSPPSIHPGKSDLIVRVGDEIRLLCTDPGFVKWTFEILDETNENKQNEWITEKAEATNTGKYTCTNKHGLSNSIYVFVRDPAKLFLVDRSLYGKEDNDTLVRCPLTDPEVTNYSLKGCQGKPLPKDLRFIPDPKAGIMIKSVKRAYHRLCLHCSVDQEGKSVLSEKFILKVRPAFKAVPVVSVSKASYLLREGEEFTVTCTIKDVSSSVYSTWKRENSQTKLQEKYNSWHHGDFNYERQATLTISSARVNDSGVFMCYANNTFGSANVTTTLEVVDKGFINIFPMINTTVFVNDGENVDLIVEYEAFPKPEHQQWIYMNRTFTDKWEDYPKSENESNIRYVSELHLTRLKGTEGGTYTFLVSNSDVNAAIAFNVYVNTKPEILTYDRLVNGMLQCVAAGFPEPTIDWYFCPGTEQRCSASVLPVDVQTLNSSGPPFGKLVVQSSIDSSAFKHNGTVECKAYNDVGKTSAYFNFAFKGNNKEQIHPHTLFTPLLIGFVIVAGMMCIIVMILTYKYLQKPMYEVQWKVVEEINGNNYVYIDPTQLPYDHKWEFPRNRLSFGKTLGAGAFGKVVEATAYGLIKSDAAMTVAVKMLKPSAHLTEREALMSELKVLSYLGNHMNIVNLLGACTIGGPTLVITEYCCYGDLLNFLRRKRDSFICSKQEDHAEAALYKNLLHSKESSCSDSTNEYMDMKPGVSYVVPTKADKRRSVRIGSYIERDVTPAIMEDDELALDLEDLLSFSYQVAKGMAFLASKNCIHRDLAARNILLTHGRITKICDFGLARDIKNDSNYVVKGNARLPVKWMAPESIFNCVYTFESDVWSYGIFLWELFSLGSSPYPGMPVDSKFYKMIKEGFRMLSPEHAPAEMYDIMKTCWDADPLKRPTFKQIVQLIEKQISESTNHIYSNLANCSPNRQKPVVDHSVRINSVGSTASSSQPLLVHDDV
T2 sequence (P16234 24-1089): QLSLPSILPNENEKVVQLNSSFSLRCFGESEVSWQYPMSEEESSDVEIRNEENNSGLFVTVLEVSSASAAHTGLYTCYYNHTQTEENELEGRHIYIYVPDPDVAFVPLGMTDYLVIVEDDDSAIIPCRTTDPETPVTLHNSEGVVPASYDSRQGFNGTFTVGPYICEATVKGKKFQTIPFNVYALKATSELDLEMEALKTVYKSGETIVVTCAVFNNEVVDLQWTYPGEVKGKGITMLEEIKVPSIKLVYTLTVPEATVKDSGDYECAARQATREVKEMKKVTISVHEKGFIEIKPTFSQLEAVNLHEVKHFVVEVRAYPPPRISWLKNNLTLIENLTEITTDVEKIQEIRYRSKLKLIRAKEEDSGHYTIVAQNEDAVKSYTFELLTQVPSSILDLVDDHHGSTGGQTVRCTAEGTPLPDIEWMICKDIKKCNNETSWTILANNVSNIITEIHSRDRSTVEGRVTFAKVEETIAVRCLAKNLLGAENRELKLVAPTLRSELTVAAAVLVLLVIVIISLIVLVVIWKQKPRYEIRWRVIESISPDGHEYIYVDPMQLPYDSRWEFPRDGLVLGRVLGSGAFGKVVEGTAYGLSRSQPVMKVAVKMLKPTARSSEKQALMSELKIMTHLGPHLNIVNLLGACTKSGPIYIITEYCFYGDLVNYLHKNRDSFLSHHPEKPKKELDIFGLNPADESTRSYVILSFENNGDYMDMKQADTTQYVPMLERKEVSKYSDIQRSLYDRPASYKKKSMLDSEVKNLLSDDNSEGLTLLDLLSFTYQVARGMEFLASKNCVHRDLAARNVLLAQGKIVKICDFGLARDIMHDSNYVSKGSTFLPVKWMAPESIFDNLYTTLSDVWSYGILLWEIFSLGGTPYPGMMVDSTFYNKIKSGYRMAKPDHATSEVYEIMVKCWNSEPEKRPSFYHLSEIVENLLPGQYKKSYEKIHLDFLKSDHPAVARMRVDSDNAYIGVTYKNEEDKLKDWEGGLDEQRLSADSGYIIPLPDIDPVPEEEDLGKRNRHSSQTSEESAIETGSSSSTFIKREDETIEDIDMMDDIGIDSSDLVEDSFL

| Compound | IC50 (c-kit) | IC50 (PDGF-Ra) | inhibition at 1 µM (c-kit) | inhibition at 0.1 µM (PDGF-Ra) |
| --- | --- | --- | --- | --- |
| COc1cc2nccc(Oc3cc(C)c(NCCCOc4ccccc4)cc3C)c2cc1OC [Example 886, N-{4-[(6,7-Dimethoxy-4-quinolyl)oxy]-2 5-dimethylphenyl}-N-(3-phenoxypropyl)amine] | – | > 100 nM | 27% | 47% |
| COc1cc2nccc(Oc3ccc(NCCCOc4ccccc4)c(C)c3C)c2cc1OC [Example 887, N-{4-[(6,7-Dimethoxy-4-quinolyl)oxy]-2,3-dimethylphenyl}-N-(3-phenoxypropyl)amine] | – | 50 nM | 20% | – |
| COc1cc2nccc(Oc3cc(C)c(NCCCOc4ccccc4C)cc3C)c2cc1OC [Example 889, N-{4-[(6,7-Dimethoxy-4-quinolyl)oxy]-2,5-dimethylphenyl}-N-[3-(2-methylphenoxy)propyl]amine] | – | > 100 nM | 28% | 30% |
| COc1cc2nccc(Oc3ccc(NCCCOc4ccccc4C)c(C)c3C)c2cc1OC [Example 890, N-{4-[(6,7-Dimethoxy-4-quinolyl)oxy]-2,3-dimethylphenyl}-N-[3-(2-methylphenoxy)propyl]amine] | – | 95 nM | 39% | – |
| COc1cc2nccc(Oc3cc(C)c(NCCCOc4ccccc4Cl)cc3C)c2cc1OC [Example 892, N-[3-(2-Chlorophenoxy)propyl]-N-{4-[(6,7-dimethoxy-4-quinolyl)oxy]-2,5-dimethylphenyl}amine] | – | > 100 nM | 30% | 25% |
| COc1cc2nccc(Oc3ccc(NCCCOc4ccccc4Cl)c(C)c3C)c2cc1OC [Example 893] | 640 nM | 52 nM | – | – |
| COc1cc2nccc(Oc3ccc(NCCOc4c(C)cccc4C)c(C)c3C)c2cc1OC [Example 894, N-{4-[(6,7-Dimethoxy-4-quinolyl)oxy]-2,3-dimethylphenyl}-N-[2-(2,6-dimethylphenoxy)ethyl]amine] | – | > 100 nM | 23% | 49% |
| COc1cc2nccc(Oc3cc(C)c(NCCOc4c(C)cccc4C)cc3C)c2cc1OC [Example 895, N-{4-[(6,7-Dimethoxy-4-quinolyl)oxy]-2,5-dimethylphenyl}-N-[2-(2,6-dimethylphenoxy)ethyl]amine] | – | > 100 nM | 20% | 33% |
| COc1cc2nccc(Oc3cc(C)c(NCCOc4c(OC)cccc4OC)cc3C)c2cc1OC [Example 896, N-[2-(2,6-Dimethoxyphenoxy)ethyl]-N-{4-[(6,7-dimethoxy-4-quinolyl)oxy]-2,5-dimethylphenyl}amine] | – | 96 nM | 31% | – |
| COc1cc2nccc(Oc3ccc(NC(=S)NC(=O)c4ccccc4C(F)(F)F)cc3F)c2cc1OC [Example 917, N-{4-[(6,7-Dimethoxy-4-quinolyl)oxy]-3-fluorophenyl}-N′-[2-(trifluoromethyl)benzoyl]thiourea] | 546 nM | 132 nM | – | – |
| COc1cc2nccc(Oc3ccc(NC(=S)NC(=O)c4ccccc4C)c([N+](=O)[O-])c3)c2cc1OC [Example 925, N-{4-[(6,7-Dimethoxy-4-quinolyl)oxy]-2-nitrophenyl}-N′-(2-methylbenzoyl)thiourea] | 430 nM | 35 nM | – | – |
| CCCc1ccc(C(=O)NC(=S)Nc2ccc(Oc3ccnc4cc(OC)c(OC)cc34)cc2F)cc1 [Example 994, N-{4-[(6,7-Dimethoxy-4-quinolyl)oxy]-2-fluorophenyl}-N′-(4-propylbenzoyl)thiourea] | – | 27 nM | 47% | – |
| CCCCc1ccc(C(=O)NC(=S)Nc2ccc(Oc3ccnc4cc(OC)c(OC)cc34)cc2F)cc1 [Example 995, N-(4-Butylbenzoyl)-N′-{4-[(6,7-dimethoxy-4-quinolyl)oxy]-2-fluorophenyl}thiourea] | – | 87 nM | 23% | – |
| COc1cc2nccc(Oc3ccc(NC(=S)NC(=O)c4ccc(CCl)cc4)c(F)c3)c2cc1OC [Example 996, N-[4-(Chloromethyl)benzoyl]-N′-{4-[(6,7-dimethoxy-4-quinolyl)oxy]-2-fluorophenyl}thiourea] | – | 53 nM | 27% | – |
| CCCc1ccc(C(=O)NC(=S)Nc2ccc(Oc3ccnc4cc(OC)c(OC)cc34)c(F)c2)cc1 [Example 998, N-{4-[(6,7-Dimethoxy-4-quinolyl)oxy]-3-fluorophenyl}-N′-(4-propylbenzoyl)thiourea] | 591 nM | 25 nM | – | – |
| CCCCc1ccc(C(=O)NC(=S)Nc2ccc(Oc3ccnc4cc(OC)c(OC)cc34)c(F)c2)cc1 [Example 999, N-(4-Butylbenzoyl)-N′-{4-[(6,7-dimethoxy-4-quinolyl)oxy]-3-fluorophenyl}thiourea] | – | 29 nM | 45% | – |
| COc1cc2nccc(Oc3ccc(NC(=S)NC(=O)c4ccc(C)cc4C)cc3)c2cc1OC [Example 1003, N-{4-[(6,7-Dimethoxy-4-quinolyl)oxy]phenyl}-N′-(2,4-dimethylbenzoyl)thiourea] | 628 nM | 24 nM | – | – |

These reach a lower IC50 (PDGF-Ra). Values come first.

| IC50 (c-kit) | IC50 (PDGF-Ra) | inhibition at 1 µM (c-kit) | inhibition at 0.1 µM (PDGF-Ra) | Compound |
| --- | --- | --- | --- | --- |
| 420 nM | < 3 nM | – | – | COc1cc2nccc(Oc3ccc(NCCCOc4ccccc4)cc3)c2cc1OC [Example 885, N-{4-[(6,7-Dimethoxy-4-quinolyl)oxy]phenyl}-N-(3-phenoxypropyl)amine] |
| 385 nM | 12 nM | – | – | COc1cc2nccc(Oc3ccc(NCCCOc4ccccc4C)cc3)c2cc1OC [Example 888, N-{4-[(6,7-Dimethoxy-4-quinolyl)oxy]phenyl}-N-[3-(2-methylphenoxy)propyl]amine] |
| 280 nM | 7 nM | – | – | COc1cc2nccc(Oc3ccc(NCCCOc4ccccc4Cl)cc3)c2cc1OC [Example 891, N-[3-(2-Chlorophenoxy)propyl]-N-{4-[(6,7-dimethoxy-4-quinolyl)oxy]phenyl}amine] |
| – | 5 nM | 40% | – | COc1cc2nccc(Oc3ccc(NC(=S)NC(=O)c4ccccc4Cl)c(F)c3)c2cc1OC [Example 905, N-(2-Chlorobenzoyl)-N′-{4-[(6,7-dimethoxy-4-quinolyl)oxy]-2-fluorophenyl}thiourea] |
| 757 nM | 9 nM | – | – | COc1cc2nccc(Oc3ccc(NC(=S)NC(=O)c4ccccc4I)c(F)c3)c2cc1OC [Example 908, N-{4-[(6,7-Dimethoxy-4-quinolyl)oxy]-2-fluorophenyl}-N′-(2-iodobenzoyl)thiourea] |
| 240 nM | 9 nM | – | – | COc1cc2nccc(Oc3ccc(NC(=S)NC(=O)c4ccccc4I)cc3F)c2cc1OC [Example 915, N-{4-[(6,7-Dimethoxy-4-quinolyl)oxy]-3-fluorophenyl}-N′-(2-iodobenzoyl)thiourea] |
| 623 nM | 5 nM | – | – | COc1cc2ncnc(Oc3ccc(NC(=S)NC(=O)c4ccccc4C)cc3)c2cc1OC [Example 927, N-{4-[(6,7-Dimethoxy-4-quinazolinyl)oxy]phenyl}-N′-(2-methylbenzoyl)thiourea] |
| 184 nM | < 10 nM | – | – | COc1cc2nccc(Oc3ccc(NC(=S)NC(=O)c4cccc(C)c4)cc3)c2cc1OC [Example 930, N-{4-[(6,7-Dimethoxy-4-quinolyl)oxy]phenyl}-N′-(3-methylbenzoyl)thiourea] |
| 300 nM | < 10 nM | – | – | COc1cc2nccc(Oc3ccc(NC(=S)NC(=O)c4ccc(C)cc4)cc3)c2cc1OC [Example 959, N-{4-[(6,7-Dimethoxy-4-quinolyl)oxy]phenyl}-N′-(4-methylbenzoyl)thiourea] |
| – | 20 nM | 15% | – | COc1cc2nccc(Oc3ccc(NC(=S)NC(=O)c4ccc(I)cc4)c(F)c3)c2cc1OC [Example 967, N-{4-[(6,7-Dimethoxy-4-quinolyl)oxy]-2-fluorophenyl}-N′-(4-iodobenzoyl)thiourea] |
| 425 nM | 14 nM | – | – | COc1cc2nccc(Oc3ccc(NC(=S)NC(=O)c4ccc5c(c4)OCO5)cc3)c2cc1OC [Example 989, N-(1,3-Benzodioxol-5-ylcarbonyl)-N′-{4-[(6,7-dimethoxy-4-quinolyl)oxy]phenyl}thiourea] |
| – | 19 nM | 20% | – | COc1cc2nccc(Oc3ccc(NC(=S)NC(=O)c4ccc(-c5ccccc5)cc4)cc3F)c2cc1OC [Example 991, N-{4-[(6,7-Dimethoxy-4-quinolyl)oxy]-3-fluorophenyl}-N′-(4-phenylbenzoyl)thiourea] |
| 264 nM | 9 nM | – | – | CCc1ccc(C(=O)NC(=S)Nc2ccc(Oc3ccnc4cc(OC)c(OC)cc34)c(F)c2)cc1 [Example 997, N-{4-[(6,7-Dimethoxy-4-quinolyl)oxy]-3-fluorophenyl}-N′-(4-ethylbenzoyl)thiourea] |
| 771 nM | 3 nM | – | – | COc1cc2nccc(Oc3ccc(NC(=S)NC(=O)c4ccc(CCl)cc4)cc3F)c2cc1OC [Example 1000, N-[4-(Chloromethyl)benzoyl]-N′-{4-[(6,7-dimethoxy-4-quinolyl)oxy]-3-fluorophenyl}thiourea] |
| – | < 10 nM | 34% | – | CCCc1ccc(C(=O)NC(=S)Nc2ccc(Oc3ccnc4cc(OC)c(OC)cc34)c(Cl)c2)cc1 [Example 1001, N-{3-Chloro-4-[(6,7-dimethoxy-4-quinolyl)oxy]phenyl}-N′-(4-propylbenzoyl)thiourea] |
| – | < 10 nM | 16% | – | COc1cc2ncnc(Oc3ccc(NC(=S)NC(=O)c4ccc(CCl)cc4)cc3)c2cc1OC [Example 1002, N-[4-(Chloromethyl)benzoyl]-N′-{4-[(6,7-dimethoxy-4-quinazolinyl)oxy]phenyl}thiourea] |
